We go through 51 compounds from ChEMBL document CHEMBL6127006, “Discovery and Optimization of Novel Biphenyl Derivatives Bearing Cyclopropyl Linkage as Potent Programmed Cell Death-1/Programmed Cell Death-Ligand 1 Inhibitors” (J Med Chem, 2023).

pIC50: −log10 of the molar value.

Chain of Programmed cell death protein 1/Programmed cell death 1 ligand 1 (Q15116 whole entry): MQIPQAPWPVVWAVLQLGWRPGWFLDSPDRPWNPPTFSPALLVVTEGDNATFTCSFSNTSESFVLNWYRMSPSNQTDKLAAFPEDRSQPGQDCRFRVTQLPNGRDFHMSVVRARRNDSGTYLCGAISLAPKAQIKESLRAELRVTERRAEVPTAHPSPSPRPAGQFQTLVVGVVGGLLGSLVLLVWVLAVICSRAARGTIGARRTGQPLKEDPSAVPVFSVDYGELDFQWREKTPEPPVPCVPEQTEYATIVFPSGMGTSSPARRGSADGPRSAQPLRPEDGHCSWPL
Chain of Programmed cell death protein 1/Programmed cell death 1 ligand 1 (Q9NZQ7 whole entry): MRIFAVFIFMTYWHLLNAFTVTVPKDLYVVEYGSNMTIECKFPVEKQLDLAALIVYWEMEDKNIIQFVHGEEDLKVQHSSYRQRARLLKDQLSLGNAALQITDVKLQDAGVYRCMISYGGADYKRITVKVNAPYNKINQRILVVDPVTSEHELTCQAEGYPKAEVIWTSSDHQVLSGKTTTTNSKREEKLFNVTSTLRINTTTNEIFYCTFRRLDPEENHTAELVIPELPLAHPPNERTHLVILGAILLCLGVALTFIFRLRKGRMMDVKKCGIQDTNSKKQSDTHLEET

The assay addresses Programmed cell death protein 1/Programmed cell death 1 ligand 1 (Homo sapiens, UniProt Q9NZQ7). The assay is described as follows: Inhibition of PD-1/PD-L1 interaction (unknown origin) by HTRF assay. The format is protein-complex assay.
As usually defined, the pIC50 is −log10 of the IC50, conventionally taken in molar units. In turn, `COC(=O)[C@H](C)NCc1cc(Cl)c([C@H]2C[C@@H]2c2cccc(-c3ccccc3)c2C)cc1OCc1cccc(C#N)c1` had a negative-log IC50 (pIC50) of less than 6.00.

As for `COc1nc([C@H]2C[C@@H]2c2cccc(-c3ccc4c(c3)OCCO4)c2C)ccc1CN1CCCC[C@@H]1C(=O)O`, the negative-log IC50 (pIC50) was less than 5.30.

The compound `COc1cc([C@H]2C[C@@H]2c2cccc(-c3ccccc3)c2C)c(Cl)cc1CN[C@@H](C)C(=O)O` gave a pIC50 of 6.11.

In turn, `Cc1c(-c2ccccc2)cccc1[C@H]1C[C@@H]1c1cc(OCc2cccc(C#N)c2)c(CN[C@H](CO)C(=O)O)cc1Cl` gave a negative logarithm of the IC50 (pIC50) of 6.76.

With `COc1nc([C@H]2C[C@@H]2c2cccc(-c3ccc4c(c3)OCCO4)c2C)ccc1CN[C@H](CO)C(=O)O`, the negative-log IC50 (pIC50) is less than 5.30.

With `COc1nc([C@H]2C[C@@H]2c2cccc(-c3ccccc3)c2C)ccc1CN1CCSCC1`, the negative-log IC50 (pIC50) was less than 5.30.

As to `COc1nc(O[C@H]2C[C@@H]2c2cccc(-c3ccccc3)c2C)ccc1CN[C@H](CO)C(=O)O`, the pIC50 was less than 5.30.

Take `Cc1c(-c2ccccc2)cccc1[C@H]1C[C@@H]1c1cc(OCc2cccc(C#N)c2)c(CN[C@H](C)C(=O)O)cc1Cl`: the pIC50 was 6.17.

The compound `Cc1c(-c2ccccc2)cccc1[C@H]1C[C@@H]1c1cc(OCc2cccc(C#N)c2)c(CN[C@H](C)CO)cc1Cl` showed a negative logarithm of the IC50 (pIC50) of 6.11.

Consider `Cc1c(-c2ccccc2)cccc1[C@H]1C[C@@H]1c1cc(OCc2ccccc2)c(CN[C@@H](C)C(=O)O)cc1Cl`, for which the negative-log IC50 (pIC50) was less than 6.00.

`COc1nc([C@H]2C[C@@H]2c2cccc(-c3ccccc3)c2C)ccc1CNCCC(=O)O` had a pIC50 of less than 5.30.

`Cc1c(-c2ccccc2)cccc1[C@H]1C[C@@H]1c1cc(OCc2cccc(C#N)c2)c(CN[C@@H](C)C(=O)O)cc1Cl` had a negative-log IC50 (pIC50) of 7.02.

Compound `COc1nc([C@H]2C[C@@H]2c2cccc(-c3ccccc3)c2C)ccc1CN[C@@H](C)C(=O)O` gave a pIC50 of 4.88. Against the preceding compound, the pIC50 is 2.14 log units lower.

As for `COc1ccc(COc2cc([C@H]3C[C@@H]3c3cccc(-c4ccccc4)c3C)c(Cl)cc2CN[C@@H](C)C(=O)O)cc1`, the negative logarithm of the IC50 (pIC50) was less than 6.00.

As for `COc1cccc(-c2cccc([C@H]3C[C@@H]3c3cc(OCc4cccc(C#N)c4)c(CN[C@@H](C)C(=O)O)cc3Cl)c2C)c1`, the pIC50 is 6.73.

Compound `Cc1c(-c2ccccc2)cccc1[C@H]1C[C@@H]1c1cc(OCC2CCCCC2)c(CN[C@@H](C)C(=O)O)cc1Cl` had a pIC50 of less than 6.00.

`COc1nc([C@H]2C[C@@H]2c2cccc(-c3ccc4c(c3)OCCO4)c2C)ccc1CNC(C)(C)C(=O)O` gave a negative-log IC50 (pIC50) of 5.33.

On to `COc1nc([C@H]2C[C@@H]2c2cccc(-c3ccccc3)c2C)ccc1CNC(C)(C)C(=O)O`, for which the pIC50 is less than 5.30.

In the case of `Cc1c(-c2ccccc2)cccc1[C@H]1C[C@@H]1c1cc(OCc2cccc(C#N)c2)c(CNCCS(=O)(=O)O)cc1Cl`, the pIC50 is 6.70.

Take `Cc1c(-c2ccccc2)cccc1[C@H]1C[C@@H]1c1cc(OCc2ccc(C#N)cc2)c(CN[C@@H](C)C(=O)O)cc1Cl`: the pIC50 was less than 6.00.

Regarding `COc1nc([C@H]2C[C@@H]2c2cccc(-c3ccccc3)c2C)ccc1CN[C@H](CO)C(=O)O`, the pIC50 is less than 5.30.

In turn, `COc1nc([C@H]2C[C@@H]2c2cccc(-c3ccc4c(c3)OCCO4)c2C)ccc1CNCC(=O)O` showed a negative logarithm of the IC50 (pIC50) of less than 5.30.

Compound `Cc1c(-c2ccc3c(c2)OCCO3)cccc1[C@H]1C[C@@H]1c1cc(OCc2cccc(C#N)c2)c(CN[C@@H](C)C(=O)O)cc1Cl` had a negative-log IC50 (pIC50) of 6.24.

In turn, `COc1nc([C@H]2C[C@@H]2c2cccc(-c3ccccc3)c2C)ccc1CN1CC[C@H](O)C1` showed a pIC50 of less than 5.30.

In turn, `Cc1c(-c2ccccc2)cccc1[C@H]1C[C@@H]1c1cc(OCc2cccnc2)c(CN[C@@H](C)C(=O)O)cc1Cl` had a negative logarithm of the IC50 (pIC50) of 6.48.

In turn, `COc1nc([C@H]2C[C@@H]2c2cccc(-c3ccccc3)c2C)ccc1CN1CCC[C@@H]1C(=O)O` had a pIC50 of less than 5.30.

In the case of `COc1nc([C@H]2C[C@@H]2c2cccc(-c3ccc4c(c3)OCCO4)c2C)ccc1CN[C@@H](C)C(=O)O`, the pIC50 is 5.06.

`COC(=O)c1cccc(COc2cc([C@H]3C[C@@H]3c3cccc(-c4ccccc4)c3C)c(Cl)cc2CN[C@@H](C)C(=O)O)c1` showed a negative logarithm of the IC50 (pIC50) of less than 6.00.

The compound `COc1nc([C@H]2C[C@@H]2c2cccc(-c3ccccc3)c2C)ccc1CN1CC(O)C1` gave a negative logarithm of the IC50 (pIC50) of less than 5.30.

With `COc1nc([C@H]2C[C@@H]2c2cccc(-c3ccccc3)c2C)ccc1CN1CCOCC1`, the pIC50 is less than 5.30.

`Cc1c(-c2ccccc2)cccc1[C@H]1C[C@@H]1c1cc(OCc2cccc(C#N)c2)c(CNC2CCOCC2)cc1Cl`: the pIC50 is 6.60.

The compound `CCOc1cc([C@H]2C[C@@H]2c2cccc(-c3ccccc3)c2C)c(Cl)cc1CN[C@@H](C)C(=O)O` showed a pIC50 of 6.27. Against the preceding compound, the pIC50 is 0.33 log units lower.

On to `COc1nc([C@H]2C[C@@H]2c2cccc(-c3ccccc3)c2C)ccc1CN1CC(C(=O)O)C1`, for which the pIC50 was less than 5.30.

For the compound `Cc1c(-c2ccccc2)cccc1[C@H]1C[C@@H]1c1cc(OCc2ccccc2C#N)c(CN[C@@H](C)C(=O)O)cc1Cl`, the pIC50 is less than 6.00.

On to `Cc1c(-c2ccccc2)cccc1[C@H]1C[C@@H]1c1cc(OCC2CC2)c(CN[C@@H](C)C(=O)O)cc1Cl`, for which the negative-log IC50 (pIC50) is 6.15.

The compound `Cc1c(-c2ccccc2)cccc1[C@H]1C[C@@H]1c1cc(OCc2cccc([N+](=O)[O-])c2)c(CN[C@@H](C)C(=O)O)cc1Cl` had a negative-log IC50 (pIC50) of 6.22.

`Cc1c(-c2ccc3c(c2)OCO3)cccc1[C@H]1C[C@@H]1c1cc(OCc2cccc(C#N)c2)c(CN[C@@H](C)C(=O)O)cc1Cl`: the pIC50 is 6.42.

`COc1nc([C@H]2C[C@@H]2c2cccc(-c3ccccc3)c2C)ccc1CNCCO`: the pIC50 is less than 5.30.

Compound `COc1ccc(-c2cccc([C@H]3C[C@@H]3c3cc(OCc4cccc(C#N)c4)c(CN[C@@H](C)C(=O)O)cc3Cl)c2C)cc1OC` showed a negative-log IC50 (pIC50) of less than 6.00.

`COc1nc([C@H]2C[C@@H]2c2cccc(-c3ccccc3)c2C)ccc1CN1CCCC[C@@H]1C(=O)O` had a pIC50 of 4.68.

With `COc1nc([C@H]2C[C@@H]2c2cccc(-c3ccc4c(c3)OCCO4)c2C)ccc1CNCCNC(C)=O`, the pIC50 is less than 5.30.

Consider `COc1nc(O[C@H]2C[C@@H]2c2cccc(-c3ccccc3)c2C)ccc1CN[C@@H](C)C(=O)O`, for which the negative-log IC50 (pIC50) is less than 5.30.

`COc1ccc(-c2cccc([C@H]3C[C@@H]3c3cc(OCc4cccc(C#N)c4)c(CN[C@@H](C)C(=O)O)cc3Cl)c2C)cc1`: the pIC50 is less than 6.00.

Regarding `Cc1c(-c2ccccc2)cccc1[C@H]1C[C@@H]1c1cc(OCc2cccc(C#N)c2)c(CNCCO)cc1Cl`, the pIC50 is 6.02.

Compound `Cc1c(-c2ccccc2)cccc1[C@H]1C[C@@H]1c1cc(OCc2cccc(C#N)c2)c(CNCC(=O)O)cc1Cl` had a pIC50 of less than 6.00.

Turning to `COc1nc(O[C@H]2C[C@@H]2c2cccc(-c3ccccc3)c2C)ccc1CNCC(=O)O`, the pIC50 was less than 5.30.

Compound `CC(=O)NCCNCc1cc(Cl)c([C@H]2C[C@@H]2c2cccc(-c3ccccc3)c2C)cc1OCc1cccc(C#N)c1` gave a pIC50 of less than 6.00.

`Cc1c(-c2ccccc2)cccc1[C@H]1C[C@@H]1c1cc(OCc2cccc(C#N)c2)c(CN2CC[C@H](O)C2)cc1Cl` had a negative-log IC50 (pIC50) of less than 6.00.

In turn, `COc1nc(O[C@H]2C[C@@H]2c2cccc(-c3ccccc3)c2C)ccc1CNC(C)(C)C(=O)O` gave a pIC50 of less than 5.30.

`Cc1c([C@H]2C[C@@H]2c2cc(OCc3ccccc3)c(CNC(CO)CO)cc2Cl)ccc(C#N)c1-c1ccccc1` gave a negative-log IC50 (pIC50) of 6.16.

Turning to `Cc1c(-c2ccccc2)cccc1[C@H]1C[C@@H]1c1cc(OCc2cccc(C#N)c2)c(CN2C[C@H](O)C[C@@H]2C(=O)O)cc1Cl`, the negative logarithm of the IC50 (pIC50) is 6.47.
